Results reported in BindingDB's records for patent US20250313563 (The Broad Institute, 2025).
Where “and” joins values, the source holds several entries; their conditions need not be identical. Equal entries are not always repeated.

Key:
[1] = biological target: Glycogen synthase kinase-3 alpha (Homo sapiens, UniProt P49840); test: TR-FRET Assay
In short: (§1)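 Kinase activity, measured after a 30-minute compound preincubation, was stopped with EDTA and quantified by TR-FRET using a Tb-labelled pSer641 antibody paired with streptavidin-d2.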

[2] = biological target: Glycogen synthase kinase-3 beta (Homo sapiens, UniProt P49841); test: TR-FRET Assay
Chain of Glycogen synthase kinase-3 beta (P49841 whole entry): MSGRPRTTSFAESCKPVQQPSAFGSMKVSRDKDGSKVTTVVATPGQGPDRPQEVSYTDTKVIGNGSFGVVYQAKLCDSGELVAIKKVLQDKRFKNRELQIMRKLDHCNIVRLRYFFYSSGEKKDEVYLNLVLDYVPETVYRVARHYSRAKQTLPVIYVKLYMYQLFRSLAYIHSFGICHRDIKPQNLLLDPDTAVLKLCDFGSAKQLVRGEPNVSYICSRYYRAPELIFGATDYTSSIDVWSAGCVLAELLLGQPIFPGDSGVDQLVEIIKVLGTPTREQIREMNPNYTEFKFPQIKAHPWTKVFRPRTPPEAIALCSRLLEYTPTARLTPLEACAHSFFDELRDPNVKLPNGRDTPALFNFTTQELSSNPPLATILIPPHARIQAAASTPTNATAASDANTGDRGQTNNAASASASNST
In short: as §1

Chain of Glycogen synthase kinase-3 alpha (P49840 whole entry): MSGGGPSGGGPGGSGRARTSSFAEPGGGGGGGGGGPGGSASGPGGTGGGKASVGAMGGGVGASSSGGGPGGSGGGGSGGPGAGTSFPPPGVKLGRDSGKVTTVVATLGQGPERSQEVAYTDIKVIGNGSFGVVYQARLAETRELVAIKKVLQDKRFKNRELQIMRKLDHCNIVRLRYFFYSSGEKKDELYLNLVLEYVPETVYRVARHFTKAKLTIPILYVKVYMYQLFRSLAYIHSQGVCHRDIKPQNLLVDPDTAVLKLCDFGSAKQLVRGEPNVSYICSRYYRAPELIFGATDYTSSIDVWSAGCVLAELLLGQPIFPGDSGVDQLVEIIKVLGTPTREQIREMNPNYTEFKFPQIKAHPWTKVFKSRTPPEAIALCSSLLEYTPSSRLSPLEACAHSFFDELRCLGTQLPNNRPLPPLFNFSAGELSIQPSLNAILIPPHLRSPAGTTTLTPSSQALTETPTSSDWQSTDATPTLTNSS

| SMILES | IC50 [1] | IC50 [2] |
| --- | --- | --- |
| CC1(C)CC(=O)C2=C(C1)NC1=C(CN=N1)[C@]21COC2(CN(C(=O)Cc3ccccc3)C2)C1 [US20250313563, Compound 948036] | 100 to 1000 nM | 100 to 1000 nM |
| CC1(C)CC(=O)C2=C(C1)NC1=C(CN=N1)[C@@]21COC2(CN(C(=O)Cc3ccccc3)C2)C1 [US20250313563, Compound 948037] | < 100 nM | < 100 nM |
| Cc1ccc(C(=O)N2CC3(C2)C[C@@]2(CO3)C3=C(N=NC3)NC3=C2C(=O)CC(C)(C)C3)cc1C [US20250313563, Compound 948039] | 100 to 1000 nM | 1000 to 5000 nM |
| CC(=O)N1CCC2(C1)CC1(CO2)C2=C(N=NC2)NC2=C1C(=O)CC(C)(C)C2 (centres undefined) [US20250313563, Compound 948040] | < 100 nM | 100 to 1000 nM |
| CCC1(c2cccc(C(F)(F)F)c2)C2=CN=NC2NC2=C1C(=O)N(c1cccc(C)c1)CC2 (centres undefined) [US20250313563, Compound 948052] | < 100 nM | 100 to 1000 nM |
| CC[C@]1(c2cccc([C@H](C)c3ncccn3)c2)C2=CN=NC2NC2=C1C(=O)CC(C)(C)C2 (some centres undefined) [US20250313563, Compound 948057] | 100 to 1000 nM | 1000 to 5000 nM |
| CC[C@]1(c2cccc([C@@H](C)c3ncccn3)c2)C2=CN=NC2NC2=C1C(=O)CC(C)(C)C2 (some centres undefined) [US20250313563, Compound 948058] | < 100 nM and 100 to 1000 nM | < 100 nM and 1000 to 5000 nM |
| CC[C@@]1(c2cccc([C@H](C)c3ncccn3)c2)C2=CN=NC2NC2=C1C(=O)CC(C)(C)C2 (some centres undefined) [US20250313563, Compound 948060] | < 100 nM and 100 to 1000 nM | < 100 nM and 1000 to 5000 nM |
| CC[C@@]1(c2cccc([C@@H](C)c3ncccn3)c2)C2=CN=NC2NC2=C1C(=O)CC(C)(C)C2 (some centres undefined) [US20250313563, Compound 948061] | 100 to 1000 nM | 1000 to 5000 nM |
| CCC1(c2cccc(-c3ccnc(C)n3)c2)C2=CN=NC2NC2=C1C(=O)CC(C)(C)C2 (centres undefined) [US20250313563, Compound 948088] | 100 to 1000 nM | 1000 to 5000 nM |
| CCC1(c2cccc(-c3cc(C)ncn3)c2)C2=CN=NC2NC2=C1C(=O)CC(C)(C)C2 (centres undefined) [US20250313563, Compound 948089] | < 100 nM | 100 to 1000 nM |
| CCC1(c2cccc(-c3ncnc(C)c3C)c2)C2=CN=NC2NC2=C1C(=O)CC(C)(C)C2 (centres undefined) [US20250313563, Compound 948090] | < 100 nM | 100 to 1000 nM |
| CCC1(c2cccc(-c3nc(C)ncc3C)c2)C2=CN=NC2NC2=C1C(=O)CC(C)(C)C2 (centres undefined) [US20250313563, Compound 948091] | < 100 nM | 100 to 1000 nM |
| CCC1(c2cccc(-c3ccnc(OC)n3)c2)C2=CN=NC2NC2=C1C(=O)CC(C)(C)C2 (centres undefined) [US20250313563, Compound 948092] | < 100 nM | < 100 nM |
| CCC1(c2cccc(-c3cc(OC)ncn3)c2)C2=CN=NC2NC2=C1C(=O)CC(C)(C)C2 (centres undefined) [US20250313563, Compound 948093] | < 100 nM | 100 to 1000 nM |
| CC1(C)CC(=O)C2=C(C1)NC1=C(CN=N1)C21CCN(S(=O)(=O)c2ccc(F)c(Cl)c2)CC1 [US20250313563, Compound 948117] | < 100 nM | < 100 nM |
| CC1(C)CC(=O)C2=C(C1)NC1=C(CN=N1)C21CCN(S(=O)(=O)c2cccc(Cl)c2F)CC1 [US20250313563, Compound 948118] | < 100 nM | < 100 nM and 100 to 1000 nM |
| CC1(C)CC(=O)C2=C(C1)NC1=C(CN=N1)C21CCN(S(=O)(=O)c2ccc(F)c(F)c2)CC1 [US20250313563, Compound 948119] | < 100 nM | < 100 nM |
| CC1(C)CC(=O)C2=C(C1)NC1=C(CN=N1)C21CCN(S(=O)(=O)c2cnc3cccnn23)CC1 [US20250313563, Compound 948120] | < 100 nM and 100 to 1000 nM | < 100 nM and 1000 to 5000 nM |

| SMILES | IC50 [1] | IC50 [2] |
| --- | --- | --- |
| CC1(C)CC(=O)C2=C(C1)NC1=C(CN=N1)C21CCN(S(=O)(=O)c2cc(F)ccc2F)CC1 [US20250313563, Compound 948121] | < 100 nM and 100 to 1000 nM | < 100 nM and 100 to 1000 nM |
| CC1(C)CC(=O)C2=C(C1)NC1=C(CN=N1)C21CCN(S(=O)(=O)c2cc(Cl)ccc2Cl)CC1 [US20250313563, Compound 948122] | < 100 nM | 100 to 1000 nM |
| CC1(C)CC(=O)C2=C(C1)NC1=C(CN=N1)C21CCN(S(=O)(=O)c2cnn(CC(F)(F)F)c2)CC1 [US20250313563, Compound 948123] | < 100 nM and 100 to 1000 nM | < 100 nM and 100 to 1000 nM |
| CC[C@]1(c2cccc(-c3ccnc(C)c3)c2)C2=CN=NC2NC2=C1C(=O)N[C@@]1(CCOC1)C2 (some centres undefined) [US20250313563, Compound 948140] | < 100 nM | 100 to 1000 nM |
| CC[C@]1(c2cccc(-c3ccnc(C)c3)c2)C2=CN=NC2NC2=C1C(=O)N[C@]1(CCOC1)C2 (some centres undefined) [US20250313563, Compound 948141] | 1000 to 5000 nM | > 5000 nM |
| CC[C@@]1(c2cccc(C3=C4CC=C(C)N=C4N=CC3)c2)C2=CN=NC2NC2=C1C(=O)NC(C)(C)C2 (some centres undefined) [US20250313563, Compound 948143] | < 100 nM | 100 to 1000 nM |
| CC[C@]1(c2cccc(-c3ccnc(C)c3)c2)C2=CN=NC2NC2=C1C(=O)N[C@@]1(CCCOC1)C2 (some centres undefined) [US20250313563, Compound 948144] | < 100 nM | 100 to 1000 nM |
| CC[C@]1(c2cccc(-c3ccnc(C)c3)c2)C2=CN=NC2NC2=C1C(=O)N[C@]1(CCCOC1)C2 (some centres undefined) [US20250313563, Compound 948146] | 1000 to 5000 nM | > 5000 nM |
| CC[C@@]1(c2cccc(-c3ccnc(C)c3)c2)C2=CN=NC2NC2=C1C(=O)N[C@@]1(CCOC1)C2 (some centres undefined) [US20250313563, Compound 948149] | < 100 nM | 100 to 1000 nM |
| CC[C@@]1(c2cccc(-c3c(F)cncc3OC)c2)C2=CN=NC2NC2=C1C(=O)NC(C)(C)C2 (some centres undefined) [US20250313563, Compound 948150] | < 100 nM | < 100 nM and 100 to 1000 nM |
| CC[C@]1(c2cccc(C3=C4CC=C(C)N=C4N=CC3)c2)C2=CN=NC2NC2=C1C(=O)NC(C)(C)C2 (some centres undefined) [US20250313563, Compound 948151] | 100 to 1000 nM | > 5000 nM |
| CC1(C)CC(=O)C2=C(C1)NC1=C(CN=N1)[C@]21COC2(CN(C(=O)C(F)(F)F)C2)C1 [US20250313563, Compound 948156] | < 100 nM | 100 to 1000 nM |
| CCC1(c2cccc(N(C)c3ncccn3)c2)C2=C(CC(C)(C)NC2=O)NC2N=NC(C)=C21 (centres undefined) [US20250313563, Compound 948175] | < 100 nM | < 100 nM |
| CCC1(c2cccc(N(C)c3ncccn3)c2)C2=C(CC(C)(C)NC2=O)NC2N=NC(C(F)(F)F)=C21 (centres undefined) [US20250313563, Compound 948176] | < 100 nM | < 100 nM |
| CCC1(c2cccc(S(=O)(=O)CC3CC3)c2)C2=CN=NC2NC2=C1C(=O)NC(C)(C)C2 (centres undefined) [US20250313563, Compound 948177] | < 100 nM | 100 to 1000 nM |
| CCC1(c2cccc(S(=O)(=O)CC3CC3)c2)C2=C(CC(C)(C)NC2=O)NC2N=NC(C)=C21 (centres undefined) [US20250313563, Compound 948178] | < 100 nM | < 100 nM |
| CCC1(c2cccc(S(=O)(=O)CC3CC3)c2)C2=C(CC(C)(C)NC2=O)NC2=C1C(C(F)(F)F)N=N2 (centres undefined) [US20250313563, Compound 948179] | < 100 nM | < 100 nM |
| CCC1(c2cccc(-c3cncn3C)c2)C2=C(CC(C)(C)NC2=O)NC2N=NC(C(F)(F)F)=C21 (centres undefined) [US20250313563, Compound 948180] | < 100 nM | < 100 nM |
